Earlier results as cited in patent publication US20240122968A1, “ENHANCED NITRATE COMPOSITIONS AND METHODS OF USE” (ThermoLife International, LLC, priority 2019, published 2024).
Read-outs that look alike come from different tables or passages of the source.

System: blood pressure

| SMILES | effect on blood pressure (high doses) | effect on blood pressure (even at doses of 1.5 g per day (Weinberger et al.)) |
| --- | --- | --- |
| [Zn] [Zinc] | increase blood pressure |  |
| [Ca+2] [calcium] |  | no notable effects on blood pressure |
